Assay [1] concerns MRC-5. Description: MTT cell viability assay, normal cells. Format: cell-based. The settings on record: time not stated, MRC-5 not described in methods.
The test system of assay [2] is A549 cells. Nature of the assay: MTT cell viability and proliferation assay. Format: cell-based, human. The settings on record: Smp24 1.25-20 μM, 12, 24 and 48 h tested, time of the IC50 not stated, triplicate, consistent with ref 10. The protocol: Cellular viability was analyzed via MTT method as reported in our previous study. Briefly, A549 cells (1 × 10^4 cells/well) were cultured in 96-well plates and treated with a gradient concentration of Smp24 (1.25–20 μM) at different time intervals (12, 24, and 48 h). A549 cells were pre-incubated with different inhibitors including 40 μΜ Nec-1, 40 μM Z-DEVD-FMK, 40 μM Z-VAD-FMK, and 2 mM NAC for 30 min before 5 μM Smp24 was incubated with the cells for 12 h to investigate the responsibility of different signaling pathways in the cytotoxic effects of Smp24. After incubation, 10 µL MTT (5 mg/mL) was then added and incubated for 4 h at 37 °C in the dark. Subsequently, 200 µL DMSO was applied into each well after discarding the cell medium, and the cell viability was estimated by calculating the absorbance value at 490 nm via a microplate reader (Tecan Company, Männedorf, Switzerland). The experiments were performed in triplicate.

Where no end group is shown, it is not given here.

In the case of IWSFLIKAATKLLPSLFGGGKKDS [Smp24], the IC50 (usually the concentration at which inhibition is half-maximal) in assay [1] was approximately 14.7 µM; in assay [2] it was approximately 4.06 µM.

The values are drawn from article PMC9502404, “The Strong Anti-Tumor Effect of Smp24 in Lung Adenocarcinoma A549 Cells Depends on Its Induction of Mitochondrial Dysfunctions and ROS Accumulation” (Toxins, 2022).
